According to US9738634B2, “Heterocyclic amide compound and herbicide” (SYNGENTA PARTICIPATIONS AG, priority 2013, dated 2017):

How the values were obtained:
Format in all cases: in vivo
Conditions in all cases: treatment dosage 320 g/ha
barnyard grass [1] = experiment: Test Example 1: weedkilling efficacy, preemergent weed treatment in the submerged state; A: barnyard grass
Procedure, shortened: (§1)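 Pots of alluvial soil were flooded to a 4 cm depth. Mixed weed seeds were sown and 2.5 leaf-stage rice seedlings transplanted. On sowing day, water-diluted emulsion was applied to the water surface (dose in g/ha). After 3 weeks at 25–30 °C, effects were rated.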

bulrush [2] = experiment: Test Example 1: weedkilling efficacy, preemergent weed treatment in the submerged state; B: bulrush
Procedure, shortened: as §1

oval-leafed pondweed [3] = experiment: Test Example 1: weedkilling efficacy, preemergent weed treatment in the submerged state; C: oval-leafed pondweed
Procedure, shortened: as §1

transplanted rice = experiment: Test Example 1: preemergent weed treatment in the submerged state, effect on crop; a: transplanted rice
Procedure, shortened: as §1

barnyard grass [4] = experiment: Test Example 2: weedkilling efficacy, growth period weed treatment in the submerged state; A: barnyard grass
Procedure, shortened: (§2)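 Weeds treated at the 1-2 leaf stage by application of diluted emulsion onto floodwater (4 cm depth, alluvial soil) at specified g/ha. Grown in greenhouse at 25 to 30° C; herbicidal effect rated three weeks after treatment.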

bulrush [5] = experiment: Test Example 2: weedkilling efficacy, growth period weed treatment in the submerged state; B: bulrush
Procedure, shortened: as §2

oval-leafed pondweed [6] = experiment: Test Example 2: weedkilling efficacy, growth period weed treatment in the submerged state; C: oval-leafed pondweed
Procedure, shortened: as §2

crabgrass [7] = experiment: Test Example 3: weedkilling efficacy through soil treatment; D: crabgrass
Procedure, shortened: (§3)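 Crop and weed responses were judged three weeks after a uniform surface spray of the water-diluted emulsion at the given g/ha rate. Seeds sat beneath about 1.5 cm of sterilized diluvial soil, and boxes stood in a greenhouse at 25 to 30° C.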

green foxtail [8] = experiment: Test Example 3: weedkilling efficacy through soil treatment; E: green foxtail
Procedure, shortened: as §3

barnyard grass [9] = experiment: Test Example 3: weedkilling efficacy through soil treatment; F: barnyard grass
Procedure, shortened: as §3

wild oat [10] = experiment: Test Example 3: weedkilling efficacy through soil treatment; G: wild oat
Procedure, shortened: as §3

black-grass [11] = experiment: Test Example 3: weedkilling efficacy through soil treatment; H: black-grass
Procedure, shortened: as §3

Italian ryegrass [12] = experiment: Test Example 3: weedkilling efficacy through soil treatment; I: Italian ryegrass
Procedure, shortened: as §3

common wind-grass [13] = experiment: Test Example 3: weedkilling efficacy through soil treatment; J: common wind-grass
Procedure, shortened: as §3

Indian mallow [14] = experiment: Test Example 3: weedkilling efficacy through soil treatment; K: Indian mallow
Procedure, shortened: as §3

redroot pigweed [15] = experiment: Test Example 3: weedkilling efficacy through soil treatment; L: redroot pigweed
Procedure, shortened: as §3

fig-leafed goosefoot = experiment: Test Example 3: weedkilling efficacy through soil treatment; M: fig-leafed goosefoot
Procedure, shortened: as §3

chickweed [16] = experiment: Test Example 3: weedkilling efficacy through soil treatment; N: chickweed
Procedure, shortened: as §3

catchweed [17] = experiment: Test Example 3: weedkilling efficacy through soil treatment; O: catchweed
Procedure, shortened: as §3

birds-eye speedwell [18] = experiment: Test Example 3: weedkilling efficacy through soil treatment; p: birds-eye speedwell
Procedure, shortened: as §3

directly sown rice [19] = experiment: Test Example 3: soil treatment, effect on crop; b: directly sown rice
Procedure, shortened: as §3

corn [20] = experiment: Test Example 3: soil treatment, effect on crop; c: corn
Procedure, shortened: as §3

soybean [21] = experiment: Test Example 3: soil treatment, effect on crop; d: soybean
Procedure, shortened: as §3

wheat [22] = experiment: Test Example 3: soil treatment, effect on crop; e: wheat
Procedure, shortened: as §3

beet [23] = experiment: Test Example 3: soil treatment, effect on crop; f: beet
Procedure, shortened: as §3

rapeseed [24] = experiment: Test Example 3: soil treatment, effect on crop; g: rapeseed
Procedure, shortened: as §3

crabgrass [25] = experiment: Test Example 4: weedkilling efficacy by foliar treatment; D: crabgrass
Procedure, shortened: (§4)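 Seeds are spot-sown into sterilized diluvial soil and covered with about 1.5 cm of soil. After 14 days' greenhouse growth at 25 to 30° C, plants are sprayed on stems and leaves with diluted emulsion at the stated g/ha rate, then scored at 3 weeks.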

green foxtail [26] = experiment: Test Example 4: weedkilling efficacy by foliar treatment; E: green foxtail
Procedure, shortened: as §4

barnyard grass [27] = experiment: Test Example 4: weedkilling efficacy by foliar treatment; F: barnyard grass
Procedure, shortened: as §4

wild oat [28] = experiment: Test Example 4: weedkilling efficacy by foliar treatment; G: wild oat
Procedure, shortened: as §4

black-grass [29] = experiment: Test Example 4: weedkilling efficacy by foliar treatment; H: black-grass
Procedure, shortened: as §4

Italian ryegrass [30] = experiment: Test Example 4: weedkilling efficacy by foliar treatment; I: Italian ryegrass
Procedure, shortened: as §4

common wind-grass [31] = experiment: Test Example 4: weedkilling efficacy by foliar treatment; J: common wind-grass
Procedure, shortened: as §4

Indian mallow [32] = experiment: Test Example 4: weedkilling efficacy by foliar treatment; K: Indian mallow
Procedure, shortened: as §4

redroot pigweed [33] = experiment: Test Example 4: weedkilling efficacy by foliar treatment; L: redroot pigweed
Procedure, shortened: as §4

chickweed [34] = experiment: Test Example 4: weedkilling efficacy by foliar treatment; N: chickweed
Procedure, shortened: as §4

catchweed [35] = experiment: Test Example 4: weedkilling efficacy by foliar treatment; O: catchweed
Procedure, shortened: as §4

birds-eye speedwell [36] = experiment: Test Example 4: weedkilling efficacy by foliar treatment; p: birds-eye speedwell
Procedure, shortened: as §4

directly sown rice [37] = experiment: Test Example 4: foliar treatment, effect on crop; b: directly sown rice
Procedure, shortened: as §4

corn [38] = experiment: Test Example 4: foliar treatment, effect on crop; c: corn
Procedure, shortened: as §4

soybean [39] = experiment: Test Example 4: foliar treatment, effect on crop; d: soybean
Procedure, shortened: as §4

wheat [40] = experiment: Test Example 4: foliar treatment, effect on crop; e: wheat
Procedure, shortened: as §4

beet [41] = experiment: Test Example 4: foliar treatment, effect on crop; f: beet
Procedure, shortened: as §4

rapeseed [42] = experiment: Test Example 4: foliar treatment, effect on crop; g: rapeseed
Procedure, shortened: as §4

With `COc1cc(Cl)nc(NC(=O)C(C)(C)N2COC(C)=C(c3ccccc3)C2=O)c1` [B-2-47] the “A (barnyard grass) weedkilling efficacy grade” value (barnyard grass [1]) was 5 (weed kill ratio 90% or more, (practically complete withering)), the “B (bulrush) weedkilling efficacy grade” value (bulrush [2]) was 5 (weed kill ratio 90% or more, (practically complete withering)) and the “C (oval-leafed pondweed) weedkilling efficacy grade” value (oval-leafed pondweed [3]) was 5 (weed kill ratio 90% or more, (practically complete withering)). For the same compound, the “a (transplanted rice) effect on crop grade” value (transplanted rice) was 1 (weed kill ratio 5% or more, less than 20%), the “A (barnyard grass) weedkilling efficacy grade” value (barnyard grass [4]) was 5 (weed kill ratio 90% or more, (practically complete withering)) and the “B (bulrush) weedkilling efficacy grade” value (bulrush [5]) was 5 (weed kill ratio 90% or more, (practically complete withering)). The “C (oval-leafed pondweed) weedkilling efficacy grade” value (oval-leafed pondweed [6]) was 5 (weed kill ratio 90% or more, (practically complete withering)), the “D (crabgrass) weedkilling efficacy grade” value (crabgrass [7]) was 4 (weed kill ratio 70% or more, less than 90%) and the “E (green foxtail) weedkilling efficacy grade” value (green foxtail [8]) was 5 (weed kill ratio 90% or more, (practically complete withering)). The “F (barnyard grass) weedkilling efficacy grade” value (barnyard grass [9]) was 4 (weed kill ratio 70% or more, less than 90%), the “G (wild oat) weedkilling efficacy grade” value (wild oat [10]) was 2 (weed kill ratio 20% or more, less than 40%) and the “H (black-grass) weedkilling efficacy grade” value (black-grass [11]) was 5 (weed kill ratio 90% or more, (practically complete withering)). For the same compound, the “I (Italian ryegrass) weedkilling efficacy grade” value (Italian ryegrass [12]) was 5 (weed kill ratio 90% or more, (practically complete withering)), the “J (common wind-grass) weedkilling efficacy grade” value (common wind-grass [13]) was 5 (weed kill ratio 90% or more, (practically complete withering)) and the “K (Indian mallow) weedkilling efficacy grade” value (Indian mallow [14]) was 0 (weed kill ratio 5% or less (practically no effect)). For the same compound, the “L (redroot pigweed) weedkilling efficacy grade” value (redroot pigweed [15]) was 0 (weed kill ratio 5% or less (practically no effect)), the “M (fig-leafed goosefoot) weedkilling efficacy grade” value (fig-leafed goosefoot) was 2 (weed kill ratio 20% or more, less than 40%) and the “N (chickweed) weedkilling efficacy grade” value (chickweed [16]) was 3 (weed kill ratio 40% or more, less than 70%). For the same compound, the “O (catchweed) weedkilling efficacy grade” value (catchweed [17]) was 4 (weed kill ratio 70% or more, less than 90%), the “P (birds-eye speedwell) weedkilling efficacy grade” value (birds-eye speedwell [18]) was 5 (weed kill ratio 90% or more, (practically complete withering)) and the “b (directly sown rice) effect on crop grade” value (directly sown rice [19]) was 3 (weed kill ratio 40% or more, less than 70%). The “c (corn) effect on crop grade” value (corn [20]) was 0 (weed kill ratio 5% or less (practically no effect)), the “d (soybean) effect on crop grade” value (soybean [21]) was 0 (weed kill ratio 5% or less (practically no effect)) and the “e (wheat) effect on crop grade” value (wheat [22]) was 0 (weed kill ratio 5% or less (practically no effect)). The “f (beet) effect on crop grade” value (beet [23]) was 2 (weed kill ratio 20% or more, less than 40%), the “g (rapeseed) effect on crop grade” value (rapeseed [24]) was 3 (weed kill ratio 40% or more, less than 70%) and the “D (crabgrass) weedkilling efficacy grade” value (crabgrass [25]) was 3 (weed kill ratio 40% or more, less than 70%). For the same compound, the “E (green foxtail) weedkilling efficacy grade” value (green foxtail [26]) was 4 (weed kill ratio 70% or more, less than 90%), the “F (barnyard grass) weedkilling efficacy grade” value (barnyard grass [27]) was 1 (weed kill ratio 5% or more, less than 20%) and the “G (wild oat) weedkilling efficacy grade” value (wild oat [28]) was 2 (weed kill ratio 20% or more, less than 40%). For the same compound, the “H (black-grass) weedkilling efficacy grade” value (black-grass [29]) was 2 (weed kill ratio 20% or more, less than 40%), the “I (Italian ryegrass) weedkilling efficacy grade” value (Italian ryegrass [30]) was 2 (weed kill ratio 20% or more, less than 40%) and the “J (common wind-grass) weedkilling efficacy grade” value (common wind-grass [31]) was 4 (weed kill ratio 70% or more, less than 90%). For the same compound, the “K (Indian mallow) weedkilling efficacy grade” value (Indian mallow [32]) was 0 (weed kill ratio 5% or less (practically no effect)), the “L (redroot pigweed) weedkilling efficacy grade” value (redroot pigweed [33]) was 0 (weed kill ratio 5% or less (practically no effect)) and the “N (chickweed) weedkilling efficacy grade” value (chickweed [34]) was 2 (weed kill ratio 20% or more, less than 40%). For the same compound, the “O (catchweed) weedkilling efficacy grade” value (catchweed [35]) was 3 (weed kill ratio 40% or more, less than 70%), the “P (birds-eye speedwell) weedkilling efficacy grade” value (birds-eye speedwell [36]) was 4 (weed kill ratio 70% or more, less than 90%) and the “b (directly sown rice) effect on crop grade” value (directly sown rice [37]) was 0 (weed kill ratio 5% or less (practically no effect)). The “c (corn) effect on crop grade” value (corn [38]) was 0 (weed kill ratio 5% or less (practically no effect)), the “d (soybean) effect on crop grade” value (soybean [39]) was 0 (weed kill ratio 5% or less (practically no effect)) and the “e (wheat) effect on crop grade” value (wheat [40]) was 0 (weed kill ratio 5% or less (practically no effect)). For the same compound, the “f (beet) effect on crop grade” value (beet [41]) was 3 (weed kill ratio 40% or more, less than 70%) and the “g (rapeseed) effect on crop grade” value (rapeseed [42]) was 3 (weed kill ratio 40% or more, less than 70%).
